Test results reported in US8017767B2, “Sucralose composition” (Tate & Lyle Public Limited Company, priority 2000, dated 2011).

Assay: Accelerated stability test (50° C.) with pH stability test of sucralose sample solution
Type: physicochemical
Settings: for Days to pH Failure / Days to pH Failure (Final Product Moisture Content) / Days to pH Failure (Initial Moisture Content) / Ph Stability: 50° C.; for Days to pH Failure: WHIRLPAK polyethylene bags, failure = pH drop ≧1.0; for Days to pH Failure (Final Product Moisture Content): final dried product; for Days to pH Failure (Final Product Moisture Content) / Days to pH Failure (Initial Moisture Content): Example 3; for Days to pH Failure (Initial Moisture Content): partially dried product at intermediate (initial) moisture content; for Initial pH difference: sample solution vs pH-adjusted water at time zero; for Initial pH: sample solution (5 g in 50 ml pH-adjusted water) at time zero
Description: Label seven 6 oz. and seven 18 oz. WHIRLPAK® polyethylene bags with indelible marker for each batch being tested for stability. Accurately weigh 25 g±0.01 g of sucralose into each 6 oz. WHIRLPAK® polyethylene bag. Heat or impulse seal the 6 oz. bag to ensure air tightness. Cut off any excess polyethylene at the top of the bag above the seal. Place the 6 oz. sealed bag into the 18 oz. bag and heat or impulse seal the 18 oz. bag to ensure air tightness. Roll down the top of the 18 oz. bag above the seal and bend the metal ties to form hooks.
Place the prepared bags into an oven stabilized at 50° C.±0.5° C. by hanging them from racks by the bag hooks. The bags must be freely suspended and not touch anything. Record the time samples are placed into the oven.
The pH stability test is conducted on the sucralose at time zero (the day the samples are placed in the oven, before the sucralose is exposed to elevated temperature) and every 24 hours until the batch being tested fails the test.
Place approximately 100 ml of deionized water into a 150 ml beaker. Using 0.1 N hydrochloric acid and/or 0.1 N sodium hydroxide, adjust the pH of the water to be between 5.8 and 6.0. Record the pH reading.
Accurately weigh 5 g±0.001 g of the product to be tested and transfer it to a 50 ml volumetric flask. Dissolve and bring to the mark by adding pH-adjusted water. If the sample to be tested is one that has been exposed to heat, remove one bag of the batch being tested from the oven and allow it to cool to room temperature before opening and sampling.
Pour the solution into a 100 ml beaker containing a stir bar, and slowly stir the solution on a magnetic stirrer. Immerse the pH electrode in the sample, allow the pH reading to stabilize, and record the pH reading of the sample. If no pH drop is observed after all the bags have been tested, the experiment is void and the test must repeated with a larger number of bags.
Record (to one decimal place) the pH of both the pH-adjusted water used and the sample sucralose solution. Subtract the pH of the […]. Report the result as (−) for a pH drop and (+) for a pH gain, e.g.:
The sample fails the test if there is a pH drop of 1.0 pH unit or more. The pH stability of the batch is defined as the number of days until the pH drop between the sample solution and that of the pH adjusted water is ≧1.0.
Samples of sucralose were tested for stability using the above procedures, but using bags of different moisture permeability. All other experimental details were the same. The TYVEK®/polyethylene bags are permeable; the WHIRLPAK® bags are less permeable. The A8080 bag consists of aluminum foil laminated to low-density polyethylene, which makes it very impermeable to moisture.

[1] = Example 2, pH at crystallizer varied
[2] = Example 1, sodium acetate in mother liquor varied
[3] = (−) pH drop, (+) pH gain, Example 1
[4] = package A8080 (aluminum foil laminated to low-density polyethylene), impermeable
[5] = package FF 91 TYVEK/Polyethylene, very permeable

Row | SMILES | Days to pH Failure [2] | Initial pH [2] | Initial pH difference [3] | further results
1 | OC[C@H]1O[C@H](O[C@]2(CCl)O[C@H](CCl)[C@@H](O)[C@@H]2O)[C@H](O)[C@@H](O)[C@H]1Cl [Sample 43, 4,1′,6′-trichloro-4,1′,6′-trideoxy-galactosucrose] | – | – | – | Days to pH Failure [1]: 5 Days; Days to pH Failure (Final Product Moisture Content): 5 Days; Days to pH Failure (Initial Moisture Content): 8 Days; Initial pH difference [1]: +0.29
2 | OC[C@H]1O[C@H](O[C@]2(CCl)O[C@H](CCl)[C@@H](O)[C@@H]2O)[C@H](O)[C@@H](O)[C@H]1Cl [Sample 29, 4,1′,6′-trichloro-4,1′,6′-trideoxy-galactosucrose] | 6 Days | 6.09 | +0.12 | –
3 | OC[C@H]1O[C@H](O[C@]2(CCl)O[C@H](CCl)[C@@H](O)[C@@H]2O)[C@H](O)[C@@H](O)[C@H]1Cl [Sample 24, 4,1′,6′-trichloro-4,1′,6′-trideoxy-galactosucrose] | 5 Days | 6.02 | +0.03 | Ph Stability [4]: 8 days; Ph Stability [5]: 4 days; Ph Stability (package WHIRLPAK Polyethylene, moderately permeable): 5 days
4 | OC[C@H]1O[C@H](O[C@]2(CCl)O[C@H](CCl)[C@@H](O)[C@@H]2O)[C@H](O)[C@@H](O)[C@H]1Cl [Sample 27, 4,1′,6′-trichloro-4,1′,6′-trideoxy-galactosucrose] | 6 Days | 5.99 | +0.03 | –
5 | OC[C@H]1O[C@H](O[C@]2(CCl)O[C@H](CCl)[C@@H](O)[C@@H]2O)[C@H](O)[C@@H](O)[C@H]1Cl [Sample 6, 4,1′,6′-trichloro-4,1′,6′-trideoxy-galactosucrose] | 4 Days | 5.53 | −0.39 | –
6 | OC[C@H]1O[C@H](O[C@]2(CCl)O[C@H](CCl)[C@@H](O)[C@@H]2O)[C@H](O)[C@@H](O)[C@H]1Cl [Sample 25, 4,1′,6′-trichloro-4,1′,6′-trideoxy-galactosucrose] | 6 Days | 6.03 | +0.05 | –
7 | OC[C@H]1O[C@H](O[C@]2(CCl)O[C@H](CCl)[C@@H](O)[C@@H]2O)[C@H](O)[C@@H](O)[C@H]1Cl [Sample 8, 4,1′,6′-trichloro-4,1′,6′-trideoxy-galactosucrose] | 5 Days | 5.19 | −0.73 | –
8 | OC[C@H]1O[C@H](O[C@]2(CCl)O[C@H](CCl)[C@@H](O)[C@@H]2O)[C@H](O)[C@@H](O)[C@H]1Cl [Sample 31, 4,1′,6′-trichloro-4,1′,6′-trideoxy-galactosucrose] | 5 Days | 6.03 | +0.06 | –
9 | OC[C@H]1O[C@H](O[C@]2(CCl)O[C@H](CCl)[C@@H](O)[C@@H]2O)[C@H](O)[C@@H](O)[C@H]1Cl [Sample 18, 4,1′,6′-trichloro-4,1′,6′-trideoxy-galactosucrose] | 6 Days | 6.00 | +0.07 | –
10 | OC[C@H]1O[C@H](O[C@]2(CCl)O[C@H](CCl)[C@@H](O)[C@@H]2O)[C@H](O)[C@@H](O)[C@H]1Cl [Sample 1, 4,1′,6′-trichloro-4,1′,6′-trideoxy-galactosucrose] | 6 Days | 5.72 | −0.20 | –
11 | OC[C@H]1O[C@H](O[C@]2(CCl)O[C@H](CCl)[C@@H](O)[C@@H]2O)[C@H](O)[C@@H](O)[C@H]1Cl [Sample 28, 4,1′,6′-trichloro-4,1′,6′-trideoxy-galactosucrose] | 6 Days | 6.00 | +0.02 | –
12 | OC[C@H]1O[C@H](O[C@]2(CCl)O[C@H](CCl)[C@@H](O)[C@@H]2O)[C@H](O)[C@@H](O)[C@H]1Cl [Sample 4, 4,1′,6′-trichloro-4,1′,6′-trideoxy-galactosucrose] | 6 Days | 5.64 | −0.28 | –
13 | OC[C@H]1O[C@H](O[C@]2(CCl)O[C@H](CCl)[C@@H](O)[C@@H]2O)[C@H](O)[C@@H](O)[C@H]1Cl [Sample 9, 4,1′,6′-trichloro-4,1′,6′-trideoxy-galactosucrose] | 7 Days | 6.19 | +0.23 | –
14 | OC[C@H]1O[C@H](O[C@]2(CCl)O[C@H](CCl)[C@@H](O)[C@@H]2O)[C@H](O)[C@@H](O)[C@H]1Cl [Sample 13, 4,1′,6′-trichloro-4,1′,6′-trideoxy-galactosucrose] | 5 Days | 5.85 | −0.10 | –
15 | OC[C@H]1O[C@H](O[C@]2(CCl)O[C@H](CCl)[C@@H](O)[C@@H]2O)[C@H](O)[C@@H](O)[C@H]1Cl [Sample 21, 4,1′,6′-trichloro-4,1′,6′-trideoxy-galactosucrose] | 6 Days | 6.05 | +0.10 | –
16 | OC[C@H]1O[C@H](O[C@]2(CCl)O[C@H](CCl)[C@@H](O)[C@@H]2O)[C@H](O)[C@@H](O)[C@H]1Cl [Sample 7, 4,1′,6′-trichloro-4,1′,6′-trideoxy-galactosucrose] | 5 Days | 5.70 | −0.22 | –
17 | OC[C@H]1O[C@H](O[C@]2(CCl)O[C@H](CCl)[C@@H](O)[C@@H]2O)[C@H](O)[C@@H](O)[C@H]1Cl [sucralose, 4,1′,6′-trichloro-4,1′,6′-trideoxy-galactosucrose] | – | – | – | Ph Stability [4]: 33 days; Ph Stability [5]: 4 days
18 | OC[C@H]1O[C@H](O[C@]2(CCl)O[C@H](CCl)[C@@H](O)[C@@H]2O)[C@H](O)[C@@H](O)[C@H]1Cl [Sample 36, 4,1′,6′-trichloro-4,1′,6′-trideoxy-galactosucrose] | – | – | – | Days to pH Failure [1]: 5 Days; Days to pH Failure (Final Product Moisture Content): 5 Days; Days to pH Failure (Initial Moisture Content): 7 Days; Initial pH difference [1]: +0.04
19 | OC[C@H]1O[C@H](O[C@]2(CCl)O[C@H](CCl)[C@@H](O)[C@@H]2O)[C@H](O)[C@@H](O)[C@H]1Cl [Sample 46, 4,1′,6′-trichloro-4,1′,6′-trideoxy-galactosucrose] | – | – | – | Days to pH Failure [1]: 7 Days; Initial pH difference [1]: +0.43
20 | OC[C@H]1O[C@H](O[C@]2(CCl)O[C@H](CCl)[C@@H](O)[C@@H]2O)[C@H](O)[C@@H](O)[C@H]1Cl [Sample 5, 4,1′,6′-trichloro-4,1′,6′-trideoxy-galactosucrose] | 6 Days | 5.64 | −0.28 | –
21 | OC[C@H]1O[C@H](O[C@]2(CCl)O[C@H](CCl)[C@@H](O)[C@@H]2O)[C@H](O)[C@@H](O)[C@H]1Cl [Sample 35, 4,1′,6′-trichloro-4,1′,6′-trideoxy-galactosucrose] | – | – | – | Days to pH Failure [1]: 5 Days; Days to pH Failure (Final Product Moisture Content): 5 Days; Days to pH Failure (Initial Moisture Content): 7 Days; Initial pH difference [1]: +0.10
